{
  "source": "patent US20080071089A1",
  "about": "“Process for the Manufacture of Rabeprazole Sodium” (Lupin Limited, priority 2005, published 2008)",
  "key": {"[1]": {"conditions": "for Particle size: MALVERN mastersizer 2000, dispersant: light liquid paraffin; for mean particle diameter: amorphous solid as isolated and dried"}, "[2]": {"conditions": "versus product with particle size of above 100 μm"}, "[3]": {"conditions": "75% relative humidity, 40° C."}},
  "data": [
    {"compound": "COCCCOc1ccnc(C[S+]([O-])c2nc3ccccc3[nH]2)c1C.[Na]", "note": "(racemic) [Example 2, (±)sodium-2-[[[4-(3-methoxypropoxy)-3-methyl-pyridinyl]methyl]sulfinyl]1H-benzimidazole]", "values": [
      {"measurement": "Particle size", "setting": "[1]", "value": "15 to 55", "unit": "μm"},
      {"measurement": "mean particle diameter", "setting": "[1]", "value": "15 to 55", "unit": "μm"}
    ]},
    {"compound": "(±)sodium-2-[[[4-(3-methoxypropoxy)-3-methyl-pyridinyl]methyl]sulfinyl]1H-benzimidazole [amorphous rabeprazole sodium]", "values": [
      {"measurement": "bioavailability", "setting": "[2]", "value": "better bioavailability"},
      {"measurement": "stability", "setting": "[3]", "value": "stable"},
      {"measurement": "mean particle diameter", "setting": "[1]", "value": "10 to 55", "unit": "μm"}
    ]},
    {"compound": "COCCCOc1ccnc(C[S+]([O-])c2nc3ccccc3[nH]2)c1C.[Na]", "note": "(racemic) [Example 6 of U.S. Pat. No. 5045552, (±)sodium-2-[[[4-(3-methoxypropoxy)-3-methyl-pyridinyl]methyl]sulfinyl]1H-benzimidazole, reference compound]", "values": [
      {"measurement": "Particle size", "setting": "[1]", "value": "80 to 150", "unit": "μm"}
    ]},
    {"compound": "COCCCOc1ccnc(C[S+]([O-])c2nc3ccccc3[nH]2)c1C.[Na]", "note": "(racemic) [Example 1, (±)sodium-2-[[[4-(3-methoxypropoxy)-3-methyl-pyridinyl]methyl]sulfinyl]1H-benzimidazole]", "values": [
      {"measurement": "Particle size", "setting": "[1]", "value": "10 to 50", "unit": "μm"},
      {"measurement": "mean particle diameter", "setting": "[1]", "value": "10 to 50", "unit": "μm"}
    ]}
  ]
}
